Measured values published in paper PMC7687180 (Chembiochem, 2020).
Read-outs that look alike come from different tables or passages of the source.

Experiments:
[1] = target: T1, SdeC (Legionella pneumophila, UniProt Q5ZTK8); test: biochemical
T1 construct: gene lpg2153

[2] = target: T1, SdeC; test: biochemical; remark: listed apart in the source

| SMILES | IC50 [1] [µM] | IC50 [2] [µM] |
| --- | --- | --- |
| NC(=O)c1ccc[n+]([C@@H]2S[C@H](COP(=O)(O)OP(=O)([O-])OC[C@H]3O[C@@H](n4cnc5c(N)ncnc54)[C@H](O)[C@@H]3O)[C@@H](O)[C@H]2O)c1 [compound 2, S-NAD^+] | 27.9 | – |
| NC(=O)c1cccc([C@@H]2O[C@H](COP(=O)(O)OP(=O)(O)OC[C@H]3O[C@@H](n4cnc5c(N)ncnc54)[C@H](O)[C@@H]3O)[C@@H](O)[C@H]2O)c1 [compound 3, BAD] | 38.9 | – |
| NC(=O)c1ccc[n+]([C@@H]2O[C@H](COP(=O)([O-])OP(=O)(O)OC[C@H]3O[C@@H](n4cnc5c(N)ncnc54)[C@H](O)[C@@H]3O)[C@@H](O)[C@H]2O)c1 [NAD^+] | – | 27.7 ± 1.9 |
